In US8680081B2, “Prophylactic treatment of migraine” (priority 2000, dated 2014):

Experiments:
[1] = Prophylactic treatment of migraine by regular administration, patient case reports; format: in vivo, human
Protocol: The method for prophylactic treatment includes regular administration of a therapeutically effective amount of a combination comprising a cyclooxygenase-2 inhibitor and acetylsalicylic acid or active derivative. Administration of the combination including a cyclooxygenase-2 inhibitor may include administration of one or more cyclooxygenase-2 inhibitors.
The combination is administered regularly, meaning that the combination is administered periodically or aperiodically over a period of several days or weeks, in an effort to prevent migraine attacks, and is not merely administered in response or reaction to migraine symptoms. Regular administration may include once-daily administration of each agent, administration on alternate days, or any other periodic or aperiodic schedule that is determined to be effective as a planned course of treatment for preventing migraine.
A patient with an established history of recurrent migraine was treated with a daily oral dose of 25 milligrams of VIOXX (rofecoxib tablets, Merck & Co, Inc., Whitehouse Station, N.J.). […]
A patient with an established history of recurrent migraine was treated with a daily oral dose of 200 milligrams of CELEBREX (celecoxib capsules, G.D. Searle & Co., Chicago, Ill.).
A patient with a well-established history of recurrent migraine attacks heralded by an aura of dysphasia (i.e., difficulty in finding words) begins taking 25-50 milligrams of rofecoxib at the onset of the dysphasic symptoms. […] Because they have lately suffered more than four migraine attacks per month, on the advice of their physician they continue daily dosing of 12.5-25 milligrams of rofecoxib over time. […]

[2] = Targeted prophylactic treatment of migraine before a time window, trigger or attack, patient case reports; format: in vivo, human
Text: In another embodiment, the invention provides a method for targeted prophylactic treatment of a migraine condition. The method includes determining a time window or selected time period in which a patient desires to be free from migraine; and administering to the patient, at a time prior to the determined time window, a therapeutically effective amount of a cyclooxygenase-2 inhibitor, either alone or in combination with acetylsalicylic acid or active derivative, to prevent or reduce migraine symptoms during the time window.
Prior to the determined time window, a therapeutically effective amount of a cyclooxygenase-2 inhibitor is administered to the patient. By “prior,” it is meant that the administration is temporally before the determined time window, but sufficiently close in time so that the prophylactic effect of the cyclooxygenase-2 inhibitor is experienced throughout most or all of the determined time window.
A patient with an established history of migraine brought on by glare associated with an ophthalmic operating room microscope was treated with 6 milligrams of IMITREX by injection (Glaxo Wellcome Inc.), and an oral dose of 12.5 to 25 milligrams of VIOXX (Merck & Co, Inc.) the night before a scheduled ophthalmic operation.
A patient with an established history of migraine brought on by glare associated with repeated use of a slit lamp biomicroscope was treated with an oral dose of 12.5 to 25 milligrams of VIOXX (Merck & Co, Inc.) the night before a scheduled clinic.
A patient with an established history of migraine brought on by glare associated with repeated use of a slit lamp biomicroscope was treated with an oral dose of 12.5 to 25 milligrams of VIOXX (Merck & Co, Inc.) and 325 milligrams aspirin (over-the-counter aspirin tablets) the night before a scheduled clinic.
A patient with an established history of migraine brought on by occasional consumption of red wine (as a beverage or in a sauce or dressing) was treated with an oral dose of 12.5 to 25 milligrams of VIOXX (Merck & Co, Inc.) on the same day as such consumption before migraine attack symptoms are evident.
A patient with an established history of migraine brought on by occasional consumption of red wine (as a beverage or in a sauce or dressing) was treated with an oral dose of 12.5 to 25 milligrams of VIOXX (Merck & Co, Inc.) and 162.5 milligrams aspirin (over-the-counter aspirin tablets) on the same day as such consumption before migraine attack symptoms are evident.
(§1) A patient with a well-established history of recurrent migraine attacks learns to recognize their prodromal symptoms of altered mood, irritability, fatigue, and craving for sweets which typically occur 3 to 24 hours prior to the fully developed phase of their migraine. They learn over time that these prodromal symptoms eventually lead to a migraine attack in most cases. Their migraine attacks typically include unusual sensitivity to light and sound, difficulty concentrating, headache, and less commonly, nausea. As soon as they recognize the prodromal symptoms, they take a one-time dose of 25-50 milligrams of rofecoxib, followed by 12.5-25 milligrams of rofecoxib daily.
as §1, with “rofecoxib and 162.5-325 milligrams aspirin,” for “rofecoxib,”, “rofecoxib and 162.5-325 milligrams aspirin” for “rofecoxib”, “daily. […]” for “daily.”

[3] = Example 1, daily oral 25 milligrams VIOXX, treatment period three to four weeks

SMILES	migraine symptoms ([1]; Example 1, daily oral 25 milligrams VIOXX, first week of use)	frequency of migraine attacks [1, 3]	intensity of the symptoms of subsequent migraine attacks [1, 3]	frequency and intensity of the migraine attacks ([1]; Example 12, continued daily 12.5-25 milligrams rofecoxib)	migraine symptoms before, during and after the scheduled clinic ([2]; Example 6, glare-induced migraine, oral 12.5 to 25 milligrams VIOXX the night before)	duration of therapeutic benefit ([2]; Example 8, further daily oral 12.5 to 25 milligrams VIOXX after red wine)	migraine symptoms in the period when symptoms would normally be expected ([2]; Example 8, red wine-induced migraine, oral 12.5 to 25 milligrams VIOXX same day as consumption)	migraine attack symptoms ([2]; Example 10, at prodromal symptoms one-time 25-50 milligrams rofecoxib, then 12.5-25 milligrams daily)	period of benefit with continued daily dosing ([2]; Example 10, continued daily 12.5-25 milligrams rofecoxib)	intensity and length of the migraine attack symptoms ([2]; Example 12, 25-50 milligrams rofecoxib at onset of dysphasic aura)	intensity of the symptoms of a subsequent migraine ([1]; Example 4, daily oral 200 milligrams CELEBREX)	migraine symptoms ([1]; Example 4, daily oral 200 milligrams CELEBREX, treatment period ten to fourteen days)
CS(=O)(=O)c1ccc(C2=C(c3ccccc3)C(=O)OC2)cc1 [VIOXX, 4-[4-(methylsulfonyl)phenyl]-3-phenyl-2(5H)-furanone]	free of migraine symptoms	reduced frequency	reduced intensity	substantial decrease in the frequency and intensity	free of migraine symptoms	extended for several days	either free of, or experienced substantially reduced, migraine symptoms	either free of, or has greatly reduced, migraine attack symptoms	several days (or longer)	reduction in the intensity and length		
Cc1ccc(-c2cc(C(F)(F)F)nn2-c2ccc(S(N)(=O)=O)cc2)cc1 [CELEBREX, 4-[5-(4-methylphenyl)-3-(trifluoromethyl)-1H-pyrazol-1-yl]]											reduced intensity	free of migraine symptoms
